Measurements taken from patent US10508113B2, “Inhibitors of tyrosine kinase 2 mediated signaling” (AbbVie Inc., priority 2018, dated 2019).

Molecular target: T1, Jak1 (Homo sapiens, UniProt P23458)
T1 construct: endogenous in cells; host or cells: TF1 cells
Assay: Jak1 (PSTAT3 TF1) alpha screen assay: inhibition of IL-6 induced phosphorylation of STAT3 in TF1 cells
Type: cell-based
Details: calculated from tabulated EC50 data (Jak1 / Tyk2)
Experimental: 2. JAK1 (PSTAT3 TF1) ALPHA SCREEN ASSAY
IL-6 is known to transduce its signal through IL-6 receptor via Jak1. Activity against Jak1 was therefore measured by determining inhibition of IL-6 induced phosphorylation of STAT3 in TF1 cells.
Cell Type: TF1 Cells; Culture Medium: RPMI 1640 Medium, 2mM L-glutamine, 10% heat- inactivated fetal bovine serum (FBS), 10 mM hydroxyethyl piperazineethanesulfonic acid (HEPES), and 2 ng/mL recombinant human interleukin-6(IL-6); Assay Medium: Dulbecco's Modified Eagle Medium (DMEM) medium with 2 mM L-glutamine, 10 mM HEPES, 100 U/mL penicillin/streptomycin, 1.5 g/L sodium bicarbonate, 4.5 g/L glucose, 1 mM sodium pyruvate, 10% heat-inactivated FBS; Compound Preparation: Compounds are dissolved in 100% dimethyl sulfoxide (DMSO).
Day One—Starve Cells: 4 Flasks for one 384 plate (spin down @1000 rpm for 10 minutes and add RPMI 1640 Medium, 2 mM L-glutamine, 10% FBS, 10 mM HEPES with no IL-6 -incubate overnight).
Day Two—Compound Dilutions:
i. Manual 8-point 1:5 dilution curve: 5 mM top concentration dispensed in row A of a
Corning 96-well polypropylene plate, columns 2-12. DMSO dispensed in position A01 for low and high controls. Compounds were serially diluted 1:5 by adding 10 μL stock to […] DMSO down the plate.
ii. Media dilution of compounds: Serially diluted compounds were further diluted 1:12.5 in assay medium by adding 4 μL compound to 46 μL assay medium in a Corning 96-well polypropylene plate.
384 Alpha Screen Plate Set up: Transfer 2.5 μL/well of compound solution from assay media dilution plate. Replicates were vertical, one column of the 96-well dilution plate goes into one column on the 384-well plate twice. Plated 1×10^5 starved cells/well in 5 μL. Washed cells in 10 mL DMEM medium after spinning down. Brought cell pellet up in assay media. Counted live cells. Multiplied by dilution factor and 10,000 (constant) to get the concentration of viable cells. Multiplied by volume of assay media used to bring up cells to get the total number of live cells. Divided by 20,000,000 cells/mL to get the volume needed. Cells were plated at 5 μL/well in gray Alpha Screen 384-well plate. Spinned the plate to bring the contents to the bottom of the wells at 300 rpm for 60 seconds. Top final compound concentration: 25 μM. Sealed with adhesive and tapped gently. Incubated plate at 37° C. for 30 minutes. c. IL-6 Stimulation (pSTAT3)
Once cells were in incubator, immediately prepared working stock of IL-6 (100 ng/mL final concentration). IL-6 stock=10 μg/mL of IL-6 in phosphate buffered saline with 0.1% bovine serum albumin. Diluted 1:25 by adding 60 μL stock IL-6 to 1440 μL assay media. Added 2.5 μL IL-6 to each well. Spinned plate at 300 rpm briefly; tapped the plate gently before covering with an adhesive seal. Incubated plate at 37° C. for 30 minutes.
Added 2.5 μL of 5X Lysis buffer to each well. Incubated at room temperature on orbital shaker for 10 minutes.
e. Protein (A) Acceptor Beads Preparation:
Phosphorylated Signal Transducer and Activator of Transcription 3 (pSTAT3) was quantified using the PerkinElmer SureFire pSTAT3 (Tyrosine 705) Assay. Calculated total volume needed (wells×[…]×25%). Divided total volume by 5 to get volume of activation buffer. Subtracted volume of activation buffer from total volume and divide by 40 to get volume of acceptor beads (add last). Total volume−acceptor bead volume−activation buffer=volume of reaction buffer. Added 15 μL to each well and covered with foil. Shaked on orbital shaker for 2 hours at 500 rpm.
f. Streptavidin Donor Beads Preparation:
Calculated total volume needed (wells×[…]×25%). Divided total volume by 20 to get volume of donor beads (add last). Subtracted volume of donor beads from total volume to get volume of dilution buffer. Added 6 μL to each well and covered with foil. Shaked on orbital shaker overnight at 500 rpm.
Read plate on a Perkin Elmer Envision. […]

T1 sequence (P23458 whole entry): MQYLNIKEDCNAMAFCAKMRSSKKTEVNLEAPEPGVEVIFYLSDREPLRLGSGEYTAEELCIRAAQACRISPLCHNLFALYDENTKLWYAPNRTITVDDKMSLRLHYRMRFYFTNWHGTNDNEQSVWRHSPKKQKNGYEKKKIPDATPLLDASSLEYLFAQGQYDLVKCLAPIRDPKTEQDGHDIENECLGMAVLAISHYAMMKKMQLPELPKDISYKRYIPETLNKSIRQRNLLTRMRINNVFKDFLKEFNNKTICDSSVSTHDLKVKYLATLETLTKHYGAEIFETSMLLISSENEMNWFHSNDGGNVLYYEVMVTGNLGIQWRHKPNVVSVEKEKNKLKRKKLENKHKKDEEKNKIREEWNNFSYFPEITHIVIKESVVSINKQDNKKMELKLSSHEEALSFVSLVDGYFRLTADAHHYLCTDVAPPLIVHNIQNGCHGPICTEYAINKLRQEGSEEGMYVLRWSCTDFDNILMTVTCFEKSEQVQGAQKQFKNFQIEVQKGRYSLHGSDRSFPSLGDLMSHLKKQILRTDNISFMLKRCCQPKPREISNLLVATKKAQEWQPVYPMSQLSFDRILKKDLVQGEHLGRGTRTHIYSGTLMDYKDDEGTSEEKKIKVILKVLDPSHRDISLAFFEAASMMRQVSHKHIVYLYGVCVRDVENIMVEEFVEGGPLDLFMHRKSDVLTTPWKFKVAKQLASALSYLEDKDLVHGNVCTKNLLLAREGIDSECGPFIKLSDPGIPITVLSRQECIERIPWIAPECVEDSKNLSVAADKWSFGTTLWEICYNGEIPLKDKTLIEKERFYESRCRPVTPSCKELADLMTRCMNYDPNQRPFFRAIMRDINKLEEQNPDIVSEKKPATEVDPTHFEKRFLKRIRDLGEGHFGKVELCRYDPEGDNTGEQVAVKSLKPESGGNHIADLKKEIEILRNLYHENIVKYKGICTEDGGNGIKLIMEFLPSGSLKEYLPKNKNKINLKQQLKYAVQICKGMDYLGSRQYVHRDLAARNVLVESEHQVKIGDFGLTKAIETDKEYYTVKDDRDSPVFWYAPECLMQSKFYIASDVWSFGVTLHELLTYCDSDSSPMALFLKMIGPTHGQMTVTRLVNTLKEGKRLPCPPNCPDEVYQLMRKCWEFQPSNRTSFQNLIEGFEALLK

Structure (SMILES) | Tyk2 selectivity over Jak1
CO[C@@]1(c2cc(C)cc(-c3cn([C@H]4C[C@@H](C#N)C4)c4cnc(NC(C)=O)cc34)n2)CCOC1 [Example 17.5, N-(1-((cis)-3-cyanocyclobutyl)-3-(6-((R)-3-methoxytetrahydrofuran-3-yl)-4-methylpyridin-2-yl)-1H-pyrrolo[2,3-c]pyridin-5-yl)acetamide] | 6400-fold
COc1cc(-c2cn(C3COC3)c3cnc(NC(C)=O)cc23)nc([C@]2(OC)CCOC2)c1 [Example 5, (R)-N-(3-(4-methoxy-6-(3-methoxytetrahydrofuran-3-yl)pyridin-2-yl)-1-(oxetan-3-yl)-1H-pyrrolo[2,3-c]pyridin-5-yl)acetamide] | >901-fold
NC(=O)Nc1cc2c(-c3cccc(C4(O)COC4)n3)cn([C@@H]3CCOC3)c2cn1 [Example 15, (R)-1-(3-(6-(3-Hydroxyoxetan-3-yl)pyridin-2-yl)-1-(tetrahydrofuran-3-yl)-1H-pyrrolo[2,3-c]pyridin-5-yl)urea] | 80-fold
COc1cc(-c2cn(C)c3cnc(NC(C)=O)cc23)nc([C@]2(OC)CCOC2)c1 [Example 20, (R)-N-(3-(4-Methoxy-6-(3-methoxytetrahydrofuran-3-yl)pyridin-2-yl)-1-methyl-1H-pyrrolo[2,3-c]pyridin-5-yl)acetamide] | 328-fold
CO[C@@]1(c2cc(C)cc(-c3cn([C@H]4C[C@H](C#N)C4)c4cnc(NC(C)=O)cc34)n2)CCOC1 [Example 17.4, N-(1-((trans)-3-cyanocyclobutyl)-3-(6-((R)-3-methoxytetrahydrofuran-3-yl)-4-methylpyridin-2-yl)-1H-pyrrolo[2,3-c]pyridin-5-yl)acetamide] | 157-fold
CO[C@@]1(c2cc(C(F)F)cc(-c3cn([C@H]4CCOC4)c4cnc(NC(N)=O)cc34)n2)CCOC1 [Example 12b.3, 1-(3-(4-(difluoromethyl)-6-((R)-3-methoxytetrahydrofuran-3-yl)pyridin-2-yl)-1-((S)-tetrahydrofuran-3-yl)-1H-pyrrolo[2,3-c]pyridin-5-yl)urea] | 1214-fold
CO[C@@]1(c2cc(C(F)F)cc(-c3cn([C@@H]4CCOC4)c4cnc(NC(N)=O)cc34)n2)CCOC1 [Example 12b.2, 1-(3-(4-(difluoromethyl)-6-((R)-3-methoxytetrahydrofuran-3-yl)pyridin-2-yl)-1-((R)-tetrahydrofuran-3-yl)-1H-pyrrolo[2,3-c]pyridin-5-yl)urea] | 2667-fold
CO[C@@]1(c2cc(C#N)cc(-c3cn([C@@H]4CC4(F)F)c4cnc(NC(N)=O)cc34)n2)CCOC1 [Example 12a.3, 1-(3-(4-cyano-6-((R)-3-methoxytetrahydrofuran-3-yl)pyridin-2-yl)-1-((R)-2,2-difluorocyclopropyl)-1H-pyrrolo[2,3-c]pyridin-5-yl)urea] | >1515-fold
COc1cc(-c2cn([C@@H]3CCOC3)c3cnc(NC(C)=O)cc23)nc([C@]2(OC)CCOC2)c1 [Example 5.2, N-(3-(4-methoxy-6-((R)-3-methoxytetrahydrofuran-3-yl)pyridin-2-yl)-1-((R)-tetrahydrofuran-3-yl)-1H-pyrrolo[2,3-c]pyridin-5-yl)acetamide] | >641-fold
CC[C@@]1(c2cccc(-c3cn(C)c4cnc(NC(C)=O)cc34)n2)CCOC1 [Example 2.3, (S)-N-(3-(6-(3-ethyltetrahydrofuran-3-yl)pyridin-2-yl)-1-methyl-1H-pyrrolo[2,3-c]pyridin-5-yl)acetamide] | 188-fold
CO[C@@]1(c2cc(C(F)F)cc(-c3cn(C)c4cnc(NC(N)=O)cc34)n2)CCOC1 [Example 12.5, (R)-1-(3-(4-(difluoromethyl)-6-(3-methoxytetrahydrofuran-3-yl)pyridin-2-yl)-1-methyl-1H-pyrrolo[2,3-c]pyridin-5-yl)urea] | 909-fold
CO[C@]1(c2cc(OCC3COC3)cc(-c3cn(C)c4cnc(NC(C)=O)cc34)n2)CCOC1 [Example 6.2, (S)-N-(3-(6-(3-methoxytetrahydrofuran-3-yl)-4-(oxetan-3-ylmethoxy)pyridin-2-yl)-1-methyl-1H-pyrrolo[2,3-c]pyridin-5-yl)acetamide] | 50-fold
CO[C@@]1(c2cc(OC3COC3)cc(-c3cn(C)c4cnc(NC(C)=O)cc34)n2)CCOC1 [Example 8, (R)-N-(3-(6-(3-Methoxytetrahydrofuran-3-yl)-4-(oxetan-3-yloxy)pyridin-2-yl)-1-methyl-1H-pyrrolo[2,3-c]pyridin-5-yl)acetamide] | 244-fold
COc1cc(-c2cn(C)c3cnc(NC(N)=O)cc23)nc([C@@]2(OC)CCOC2)c1 [Example 12.7, (S)-1-(3-(4-methoxy-6-(3-methoxytetrahydrofuran-3-yl)pyridin-2-yl)-1-methyl-1H-pyrrolo[2,3-c]pyridin-5-yl)urea] | 81-fold
Cn1cc(-c2cccc(C3(O)COC3)n2)c2cc(NC(N)=O)ncc21 [Example 14, 1-(3-(6-(3-hydroxyoxetan-3-yl)pyridin-2-yl)-1-methyl-1H-pyrrolo[2,3-c]pyridin-5-yl)urea] | 20-fold
CO[C@@]1(c2cc(C(F)F)cc(-c3cn(C4COC4)c4cnc(NC(N)=O)cc34)n2)CCOC1 [Example 12b.4, (R)-1-(3-(4-(difluoromethyl)-6-(3-methoxytetrahydrofuran-3-yl)pyridin-2-yl)-1-(oxetan-3-yl)-1H-pyrrolo[2,3-c]pyridin-5-yl)urea] | 889-fold
CO[C@]1(c2cc(C)cc(-c3cn(C)c4cnc(NC(N)=O)cc34)n2)CCOC1 [Example 1b.3, (S)-1-(3-(6-(3-methoxytetrahydrofuran-3-yl)-4-methylpyridin-2-yl)-1-methyl-1H-pyrrolo[2,3-c]pyridin-5-yl)urea] | 10-fold
